# Source: ChEMBL document CHEMBL1129856, “Novel optimised quinuclidine squalene synthase inhibitors” (Bioorg Med Chem Lett, 1997)
# Tests used:
# Rattus norvegicus [1] = species: Rattus norvegicus; assay: Tested for inhibition of cholesterol biosynthesis in rat; assay type: functional
# Squalene synthase [2] = molecular target: T1, Squalene synthase (Rattus norvegicus, UniProt Q02769); assay: Tested for its inhibitory activity against rat microsomal […] squalene synthase (SQS)
# T1 sequence (Q02769 whole entry): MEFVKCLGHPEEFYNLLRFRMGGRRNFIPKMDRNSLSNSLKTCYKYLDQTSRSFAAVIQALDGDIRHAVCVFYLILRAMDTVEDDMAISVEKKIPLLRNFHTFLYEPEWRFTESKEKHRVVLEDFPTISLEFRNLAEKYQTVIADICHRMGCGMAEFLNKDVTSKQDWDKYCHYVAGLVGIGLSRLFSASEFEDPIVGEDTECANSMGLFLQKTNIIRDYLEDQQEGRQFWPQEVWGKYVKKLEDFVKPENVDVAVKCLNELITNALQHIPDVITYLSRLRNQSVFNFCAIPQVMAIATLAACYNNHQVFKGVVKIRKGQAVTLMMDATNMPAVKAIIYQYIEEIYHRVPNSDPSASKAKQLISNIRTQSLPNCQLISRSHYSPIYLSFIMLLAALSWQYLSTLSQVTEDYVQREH
# Rattus norvegicus [3] = species: Rattus norvegicus; assay: Tested for inhibition against rat cholesterol biosynthesis; assay type: functional
# Squalene synthase [4] = molecular target: T2, Squalene synthase (Homo sapiens, UniProt P37268); assay: Tested for its inhibitory activity against human microsomal […] squalene synthase (SQS)
# T2 sequence (P37268 whole entry): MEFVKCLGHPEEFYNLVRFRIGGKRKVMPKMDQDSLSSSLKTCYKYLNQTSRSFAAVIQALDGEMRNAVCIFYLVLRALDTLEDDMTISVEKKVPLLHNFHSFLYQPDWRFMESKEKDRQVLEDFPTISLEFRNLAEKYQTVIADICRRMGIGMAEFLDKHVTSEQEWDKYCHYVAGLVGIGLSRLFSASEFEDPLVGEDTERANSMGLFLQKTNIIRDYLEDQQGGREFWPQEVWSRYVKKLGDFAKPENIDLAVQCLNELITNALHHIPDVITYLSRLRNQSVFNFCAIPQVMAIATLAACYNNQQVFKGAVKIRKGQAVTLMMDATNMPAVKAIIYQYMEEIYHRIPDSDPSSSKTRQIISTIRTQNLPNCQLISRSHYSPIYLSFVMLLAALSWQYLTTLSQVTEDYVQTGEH
# [5] = Plasma half life of hydrolysis of the compound; assay type: ADME, organism-based; settings: rat
SMILES,Ki (Squalene synthase [2]),ED50 (Rattus norvegicus [3]),further results
"C=CCc1cc(CCC(=O)O)ccc1C#C[C@@]1(O)CN2CCC1CC2.Cl (single isomer, unassigned)",–,–,ED50 (Rattus norvegicus [1]): 0.9 mg/kg
C=CCc1cc(CCC(=O)OCC)ccc1C#CC1(O)CN2CCC1CC2 (stereo not drawn),6 nM,1.3 mg/kg,Ki (Squalene synthase [4]): 43 nM; half-life [5]: ≤ 5 min
C=CCc1cc(CCC(N)=O)ccc1C#CC1(O)CN2CCC1CC2 (stereo not drawn),> 250 nM,–,–
C=CCc1cc(CCC(=O)OC)ccc1C#CC1(O)CN2CCC1CC2 (stereo not drawn),20 nM,1.3 mg/kg,–
C=CCc1cc(CCCCCC(=O)OC)ccc1C#CC1(O)CN2CCC1CC2 (stereo not drawn),20 nM,1.3 mg/kg,–
C=CCc1cc(CCC(=O)OCc2ccccc2)ccc1C#CC1(O)CN2CCC1CC2 (stereo not drawn),–,–,ED50 (Rattus norvegicus [1]): 1.6 mg/kg; half-life [5]: ≤ 5 min
C=CCc1cc(CCC(=O)O)ccc1C#CC1(O)CN2CCC1CC2.Cl (stereo not drawn),–,–,ED50 (Rattus norvegicus [1]): 1.8 mg/kg
C=CCc1cc(CCC(=O)OCCCCCC)ccc1C#CC1(O)CN2CCC1CC2 (stereo not drawn),–,–,ED50 (Rattus norvegicus [1]): 1.5 mg/kg; half-life [5]: ≤ 5 min
C=CCc1cc(CCC#N)ccc1C#CC1(O)CN2CCC1CC2 (stereo not drawn),> 250 nM,–,–
C=CCc1cc(CCC(=O)N(CC)CC)ccc1C#CC1(O)CN2CCC1CC2 (stereo not drawn),> 250 nM,–,–
C=CCc1cc(CCCCC(=O)OC)ccc1C#CC1(O)CN2CCC1CC2 (stereo not drawn),8 nM,1.3 mg/kg,–
C=CCc1cc(CCCC(=O)OC)ccc1C#CC1(O)CN2CCC1CC2 (stereo not drawn),2 nM,1.3 mg/kg,–
C=CCc1cc(CCC(=O)NC)ccc1C#CC1(O)CN2CCC1CC2 (stereo not drawn),> 250 nM,–,–
C=CCc1cc(CC(=O)OCC)ccc1C#CC1(O)CN2CCC1CC2 (stereo not drawn),100 nM,–,–
